Consider 4 compounds from US20150224120A1, “COMPOSITIONS AND METHODS FOR TREATING HYPERPROLINEMIA-ASSOCIATED MENTAL DISORDERS” (priority 2011, published 2015).

In test [1] the test system is plasma proline. The settings on record: previously reported (Jacquet et al., 2005); cited from earlier work.
Test [2] relates to plasma proline. The test is described as follows: Fasting plasma proline before and after oral Vitamin D supplementation. The settings on record: oral 2000 IU daily, five fasting measurements before and five over subsequent five days, p=0.059. Format: in vivo. From the text: Affymetrix microarray data was accessed via the NCBI GEO database, accession numbers GDS1847 (FIG. 4A) and GDS2628 (FIG. 4B). […] Five fasting plasma proline measurements were obtained prior to the initiation of Vitamin D supplementation (2000 IU daily), after which an additional five fasting plasma measurements were obtained over the subsequent five days.
As illustrated by FIG. 4, the biologically active form of vitamin D (1α,25-dihydroxyvitamin D3 [1α,25(OH)2D3]) is also a potent regulator of PRODH expression. […] Moreover, in vivo (FIG. 4C), proline levels are decreased by treatment with oral vitamin D.

Test [3] deals with PRODH expression. The conditions noted are these: intestinal epithelial cells, treated (n=5) vs untreated control cells (n=5), p=0.044 one-tailed, cited from earlier work.
The subject of test [4] is PRODH expression. The settings on record: bronchial smooth muscle cells, treated (n=3) vs untreated (n=3), p=0.01; cited from earlier work.
For test [5] the following is noted: male infants receiving supplements (≦2000 IU/day) during first year of life; cited from earlier work.
The conditions of test [6]: women with high vs low dietary consumption; cited from earlier work.
For test [7], the system named is PRODH expression. In words: Peripheral PRODH expression in first-episode never-medicated SZ patients pre and post treatment (Affymetrix U133v2.0 arrays). Format: in vivo, human. From the text:
Change in log PRODH were plotted for each subject prior to-(100%), and post-treatment onset. All of the subjects received risperidone. The mean time between blood draws was 8.3 days. […] There were no significant differences in time between blood draws for those with increased PRODH (n=3), versus those with no increase (n=3, p=0.2). […] In a linear regression model, PRODH percent change was a significant predictor of total Brief Psychiatric Rating Scale (BPRS) score approximately 8 days following treatment initiation (p=0.047), after adjusting for baseline total BPRS score. Furthermore, the linear relationship between PRODH change and adjusted BPRS score was highly significant (r=−0.92, p=0.025).
Exploratory analysis of PRODH expression levels were also performed in first-episode, never-medicated SZ patients (n=6). Male, first-episode, never-medicated SZ patients were recruited at the Bellevue Hospital CPEP. A 15 ml blood sample was collected at admission to the CPEP, and peripheral PRODH expression was measured using Affymetrix U133v2.0 arrays (PRODH is one of the 54,000 transcripts). A post-treatment measurement of PRODH expression was also obtained (mean time between blood draws=8.3 days).

“Also recorded” adds a separate entry of the source. Where two headings read alike, the source gives them in different places.

On to `CCCC(CCC)C(=O)O` [valproic acid], for which the “effect on plasma proline level” value in the test on plasma proline [1] is “significant effect”.

For the compound vitamin D, the figures for the “plasma proline following Vitamin D treatment” value in the test on plasma proline [2] and in the test on plasma proline [2] (listed as vitamin D) were “trend for plasma proline to decrease” and “decreased”, respectively. The figures for the “PRODH expression (probeset 40042_r_at)” value in the test on PRODH expression [3] and in the test with PRODH expression [3] (listed as vitamin D) were “upregulated” and “significantly upregulates”, respectively. Also, the “PRODH expression (probeset 214203_s_at)” value with PRODH expression [4] is “significantly upregulates; also recorded: upregulation”. The risk of schizophrenia result in test [5] is recorded as “significantly reduced risk”. In test [6], the “lower risk of psychosis-like symptoms” value is listed as 37%.

For the compound `Cc1nc2n(c(=O)c1CCN1CCC(c3noc4cc(F)ccc34)CC1)CCCC2` [risperidone], the “PRODH expression post-treatment level (mean)” value with PRODH expression [7] (all subjects n=6, mean 8.3 days between blood draws, pre level 6.10±0.41, p=0.3) came to 6.24±0.35 expression units. In addition, the “decrease of PRODH expression after onset of treatment” value with PRODH expression [7] (no-change group, n=3, non-significant, p=0.15) is reported as 2.3%. For the same compound, in the test with PRODH expression [7] (subset of patients (n=3), p=0.034), the “change in PRODH expression between pre and post assay” value is recorded as “significantly upregulated”. In the test with PRODH expression [7] (subset of subjects with increase, n=3, p=0.04), the “mean percent change (increase) of PRODH expression after onset of treatment” value came out at 7.3%.

Consider `C=C1/C(=C\C=C2/CCC[C@]3(C)[C@@H]([C@H](C)CCCC(C)(C)O)CC[C@@H]23)C[C@@H](O)C[C@@H]1O` [1alpha,25-dihydroxy-vitamin-D3], for which the “PRODH expression (probeset 214203_s_at)” value in the test with PRODH expression [4] is “upregulation”.
